The assay concerns Candida albicans. The assay can be described thus: Binding affinity to Candida albicans lumazine synthase.

The compound `O=c1[nH]c(=O)c2c([nH]1)n(C[C@H](O)[C@H](O)[C@H](O)CO)c(=O)n2CCCOP(=O)(O)O` returned a Ka of 3.53e+06 M⁻¹.
`O=c1[nH]c(=O)c2c([nH]1)n(C[C@H](O)[C@H](O)[C@H](O)CO)c(=O)c(=O)n2CCCCOP(=O)(O)O` registered a Ka of 1.63e+06 M⁻¹.
To `O=c1[nH]c(Cl)c(CCCCOP(=O)(O)O)c(=O)[nH]1` belongs 6.61e+06 M⁻¹.
As for `O=c1[nH]c(=O)c2[nH]c(=O)n(C[C@H](O)[C@H](O)[C@H](O)CO)c2[nH]1`, the figure is 758000 M⁻¹.

Values taken from ChEMBL document CHEMBL1156460, “Lumazine synthase from Candida albicans as an anti-fungal target enzyme: structural and biochemical basis for drug design” (J Biol Chem, 2007).
